Values after ≈ are worked out from the molar mass of the structure shown. “Also recorded” adds a separate entry of the source.
How the values were obtained:
Assay type in all cases: biochemical
hyaluronidase = hyaluronidase (Bos taurus, UniProt Q2YDK3); assay: Hyaluronidase inhibition test; settings: for inhibition at 20 µg/mL: test concentration 20 μg/ml; for inhibition at 20 µg/mL / inhibition at 40 µg/mL / inhibition at 80 µg/mL: read-out: Percent hyaluronidase inhibition (%); for inhibition at 40 µg/mL: test concentration 40 μg/ml; for hyaluronidase inhibitory activity (in words): statement in the text
Method: Tests for hyaluronidase inhibition of the extract prepared in Example 2 (hereinafter referred to as the “blue rose petal extract”), the HP-20 column fractions of the blue rose petal extract (60% acetonitrile fractions) and rosadelphin A1 were carried out in accordance with a modified version of the method described by Yumie Maeda et al. in Shokukin Eiseigaku Zasshi (Journal of the Food Hygiene Society of Japan) 31(3), 233-237 (1990). Hyaluronic acid is decomposed by hyaluronidase to give N-acetylhexosamine. To measure the hyaluronidase inhibitory activity, the reducing terminal N-acetylglucosamine was quantified in terms of absorbance due to color development as labeled by p-dimethylaminobenzaldehyde (product of Wako Pure Chemical Industries, Ltd. which is hereinafter abbreviated as p-DAB).
A sample solution (40 μL) in 10% DMSO was mixed with 20 μL of 1000 U/mL hyaluronidase (product of Sigma) dissolved in 0.1 M acetate buffer (pH 4.0) and the mixture was preheated at 37° C. for 20 minutes. To the heated mixture, 40 μL of 0.5 mg/mL Compound 48/80 (product of Sigma) dissolved in the same buffer was added and the resulting mixture was allowed to settle at 37° C. for 20 minutes undisturbed until the hyaluronidase was activated. To the solution, 100 μL of a solution of 0.8 mg/mL potassium hyaluronate was added to give a final concentration of 0.4 mg/mL and reaction was effected at 37° C. for 40 minutes; thereafter, 40 μL of 0.4 N sodium hydroxide in solution was added and the mixture was cooled with ice to quench the reaction. To the reaction mixture, 40 μL of 0.8 M boric acid in solution adjusted to pH 9.1 with 6 N NaOH was added and the resulting mixture was boiled at 100° C. for 3 minutes. The mixture was then cooled to room temperature in ice bath; to the cooled mixture, 1.2 mL of 10 mg/mL p-dimethylaminobenzaldehyde (p-DAB) in solution was added while it was shielded from light and after reaction was effected at 37° C. for 20 minutes, the absorbance at 585 nm (A585) was measured. The hyaluronidase inhibitory activity of the sample was expressed in terms of percent inhibition calculated from the following formula: Percent inhibition (%)={1−(a−b)/(c−d)}×100
a: A585 of the sample solution to which the enzyme was added
b: A585 of the sample solution to which no enzyme was added
c: A585 of the control solution to which the enzyme was added
d: A585 of the control solution to which no enzyme was added.
A positive control was prepared by adding not the sample solution, but 800 μg/ml (1.56 mM as molar concentration) of sodium chromoglycate (product of Sigma which is hereinafter abbreviated as DSCG) in an amount of 40 μL to give a test concentration of 160 μg/ml.

collagenase Type IV = assay: Collagenase inhibition test; settings: for collagenase inhibitory activity (in words): statement in the text
Method: The blue rose petal extract, fractions thereof as products of treatment on a column (60% acetonitrile fractions), rosadelphin A1, rosacyanin A1, and tellimagrandin 1 were subjected to a collagenase inhibition test in accordance with a modified version of the method described in a document (Wunsch et al., Hoppe Seylers Z Physiol Chem., 333, 149-51 (1963)). For details, see below.
An enzyme solution was prepared by dissolving […] of collagenase Type IV (product of Sigma) in 1 mL of dissolved water to give a concentration of 100 μg/mL (55.1 units/mL) and diluted 50 folds just before use. A substrate solution was prepared by dissolving PZ-peptide (4-phenylazo-benzyloxycarbonyl-Pro-Leu-Gly-Pro-D-Arg-OH) (Pz-Pro-Leu-Gly-Pro-D-Arg-OH; product of Sigma) in a […] calcium chloride containing tris-HCl buffer (pH 7.1) to give a concentration of 0.5 μg/mL. To 20 μL of a solution of sample dissolved in 10% DMSO, 20 μL of the enzyme solution and 160 μL of the substrate solution were added and the mixture was subjected to reaction at 37° C. for 30 minutes. Subsequently, 400 μL of a 25 mM citric acid solution was added to quench the reaction and Pz-Pro-Leu in the reaction mixture was extracted with 2 mL of ethyl acetate. The resulting ethyl acetate layer was measured for absorbance at a wavelength of 320 nm, with ethyl acetate being used as a control. The inhibitory activity of each sample was calculated in terms of the percent inhibition determined by the following formula: Percent collagenase inhibition (%)={1−(a−b)/(c−d)}×100 […]
a: Absorbance after […] reaction in the presence of added sample b: Absorbance after […] reaction in the presence of added sample c: Absorbance after 30 min reaction in the absence of added sample d: Absorbance after 0 min reaction in the absence of added sample.

elastase = biological target: T1, elastase (Sus scrofa, UniProt P00772); assay: Elastase inhibition test; settings: for elastase inhibiting activity (in words): statement in the text
T1 construct: purchased Sigma
Method: The blue rose petal extract, fractions thereof as products of treatment on a column (60% acetonitrile fractions), rosadelphin A1, rosacyanin A1, and tellimagrandin 1 were subjected to an elastase inhibition test that was performed by the following method.
An enzyme solution was prepared by dissolving 0.1 ml of elastase (product of Sigma) in 0.2 M Tris buffer at pH 8.0 (hereinafter referred to as a Tris buffer) to give a concentration of 0.05 units/mL and diluted 100 folds just before use. A substrate solution was prepared by dissolving N-Succinyl-Ala-Ala-Ala-p-nitroanilide (product of Sigma) in a Tris buffer to give a concentration of 4 mM. To a 96-well plate, 50 μL of a solution of each sample dissolved in 10% DMSO and 50 μL of the enzyme solution were added and after mixing them with a plate shaker, the resulting mixture was preheated at 25° C. for 10 minutes. Subsequently, 100 μL of the substrate solution was added and after mixing with a plate shaker, reaction was carried out at 25° C. for 30 minutes and immediately thereafter, the liberation of p-nitroaniline was assayed by measuring the absorbance at a wavelength of 405 nm (hereinafter designated as A405). A405 measurement was also performed for a blank of sample solution that was prepared by adding a Tris buffer in place of the substrate solution, as well as for a control solution that was prepared by adding 10% DMSO in place of the sample solution. The inhibitory activity of each sample was calculated in terms of the percent inhibition determined by the following formula: Percent elastase inhibition (%)=[(f−e)−{(b−a)−(d−c)}]/(f−e)×100 […]
a: A405(0 min) of the sample solution for enzymatic reaction b: A405(30 min) of the sample solution for enzymatic reaction c: A405(0 min) of the blank of sample solution d: A405(30 min) of the blank of sample solution e: A405(0 min) of the control solution f: A405(30 min) of the control solution.

[1] = Table 3, test concentration 80 μg/ml
[2] = Table 6, test concentration 40 μg/ml
[3] = Table 8, test concentration 40 μg/mL
[4] = Table 8, test concentration 80 μg/mL
[5] = Table 8, test concentration 160 μg/mL

Sequence of hyaluronidase (Q2YDK3 entry or part of it): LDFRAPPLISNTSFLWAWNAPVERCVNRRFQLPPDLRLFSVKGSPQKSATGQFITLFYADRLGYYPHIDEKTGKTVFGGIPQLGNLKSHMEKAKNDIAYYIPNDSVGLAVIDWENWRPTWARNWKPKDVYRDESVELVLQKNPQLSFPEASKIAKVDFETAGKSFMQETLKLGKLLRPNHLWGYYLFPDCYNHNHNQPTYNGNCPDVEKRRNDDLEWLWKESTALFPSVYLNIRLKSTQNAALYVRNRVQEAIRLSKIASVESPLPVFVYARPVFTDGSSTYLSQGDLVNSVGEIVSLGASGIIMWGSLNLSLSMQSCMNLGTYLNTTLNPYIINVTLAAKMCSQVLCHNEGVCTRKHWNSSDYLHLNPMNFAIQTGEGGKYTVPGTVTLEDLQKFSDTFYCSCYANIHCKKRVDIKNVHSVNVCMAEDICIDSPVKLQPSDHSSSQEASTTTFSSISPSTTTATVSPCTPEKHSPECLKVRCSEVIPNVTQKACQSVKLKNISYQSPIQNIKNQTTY
T1 sequence (P00772 27-266): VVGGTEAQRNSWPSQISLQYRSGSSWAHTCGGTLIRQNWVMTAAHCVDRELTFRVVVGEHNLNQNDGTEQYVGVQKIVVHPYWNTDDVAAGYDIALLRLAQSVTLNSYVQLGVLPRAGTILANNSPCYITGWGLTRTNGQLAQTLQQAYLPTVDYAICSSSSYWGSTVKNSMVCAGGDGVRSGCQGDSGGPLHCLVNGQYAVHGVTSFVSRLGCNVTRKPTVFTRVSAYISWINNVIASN

O=C([O-])c1cc(=O)c2c(OCC(O)COc3cccc4oc(C(=O)[O-])cc(=O)c34)cccc2o1.[Na+].[Na+] [DSCG, sodium chromoglycate, reference compound]
Percent hyaluronidase inhibition (%) (hyaluronidase; Table 3, positive control at 160 μg/ml): * Percent inhibition by 160 μg/ml DSCG: 22.3%

O=C(OC1C(O)OC2COC(=O)c3cc(Oc4c(-c5ccc(O)c(O)c5)[o+]c5cc(O)cc6c5c4-c4c(C(=O)O)cc(O)c(O)c4O6)c(O)c(O)c3-c3c(cc(O)c(O)c3O)C(=O)OC2C1OC(=O)c1cc(O)c(O)c(O)c1)c1cc(O)c(O)c(O)c1 (centres unmarked) [Rosacyanin A1, rosacyanin A1]
inhibition at 20 µg/mL (hyaluronidase; Table 3): 24.7% | inhibition at 40 µg/mL (hyaluronidase; Table 3): 49.1% | inhibition at 80 µg/mL (hyaluronidase; [1]): 93.2% | hyaluronidase inhibitory activity (in words) (hyaluronidase): comparable activity to rosadelphin A1 | hyaluronidase inhibitory activity (in words) (hyaluronidase; listed as rosacyanin A1): strong hyaluronidase inhibitory activity | Percent collagenase inhibition (%) (collagenase Type IV; [2]): 52.0% | collagenase inhibitory activity (in words) (collagenase Type IV): greater activity than the blue rose petal extract | elastase inhibiting activity (in words) (elastase): strong activity

CC(C)CCP(=O)([O-])NCC(=O)N1CCCC1C(=O)NC(C)C(=O)[O-].[K+].[K+] [IP304, isoamylphosphonyl-Glycyl-L-Prolyl-L-Alanine, dipotassium salt, reference compound]
Percent collagenase inhibition (%) (collagenase Type IV; Table 5, test concentration 80 μg/mL): * Percent inhibition by 80 μg/mL IP304: 84.1% | Percent collagenase inhibition (%) (collagenase Type IV; [2]): *Percent inhibition by 40 μg/ml IP304: 69.7%

O=C(OC1C(O)OC2COC(=O)c3cc(Oc4c(-c5cc(O)c(O)c(O)c5)[o+]c5cc(O)cc6c5c4-c4c(C(=O)O)cc(O)c(O)c4O6)c(O)c(O)c3-c3c(cc(O)c(O)c3O)C(=O)OC2C1OC(=O)c1cc(O)c(O)c(O)c1)c1cc(O)c(O)c(O)c1 (centres unmarked) [Rosadelphin A1, rosadelphin A1]
inhibition at 20 µg/mL (hyaluronidase; Table 3): 24.4% | inhibition at 40 µg/mL (hyaluronidase; Table 3): 48.2% | inhibition at 80 µg/mL (hyaluronidase; [1]): 95.3% | hyaluronidase inhibitory activity (in words) (hyaluronidase; listed as rosadelphin A1): strong activity in a concentration dependent manner; also recorded: strong hyaluronidase inhibitory activity | Percent collagenase inhibition (%) (collagenase Type IV; [2]): 42.3% | collagenase inhibitory activity (in words) (collagenase Type IV): greater activity than the blue rose petal extract | Percent elastase inhibition (%) (elastase; [3]): 31.8% | inhibition at 40 µg/mL (elastase; Table 8, test concentration 40 μg/mL, read-out: Percent elastase inhibition (%)): 50.7% | Percent elastase inhibition (%) (elastase; [4]): 40.4% | inhibition at 80 µg/mL (elastase; Table 8, test concentration 80 μg/mL, read-out: Percent elastase inhibition (%)): 58.1% | Percent elastase inhibition (%) (elastase; [5]): 49.4% | inhibition at 160 µg/mL (elastase; Table 8, test concentration 160 μg/mL, read-out: Percent elastase inhibition (%)): 62% | elastase inhibiting activity (in words) (elastase): comparable or more than comparable activity to rosacyanin A1 | elastase inhibiting activity (in words) (elastase; listed as rosadelphin A1): strong activity in a concentration dependent manner

O=C(O[C@H]1[C@@H]2OC(=O)c3cc(O)c(O)c(O)c3-c3c(cc(O)c(O)c3O)C(=O)OC[C@H]2OC(O)[C@@H]1OC(=O)c1cc(O)c(O)c(O)c1)c1cc(O)c(O)c(O)c1 (some centres unmarked) [Tellimagrandin 1, tellimagrandin 1, reference compound]
IC50 (hyaluronidase inhibition) (hyaluronidase; Table 3): 196.5 µg/mL (≈ 250 µM) | Percent hyaluronidase inhibition (%) (hyaluronidase; [1]): 64.8% | hyaluronidase inhibitory activity (in words) (hyaluronidase): also active, though not so active as rosadelphin A1 | Percent collagenase inhibition (%) (collagenase Type IV; [2]): 42.7% | collagenase inhibitory activity (in words) (collagenase Type IV): greater activity than the blue rose petal extract | Percent elastase inhibition (%) (elastase; [3]): 5.9% | Percent elastase inhibition (%) (elastase; [4]): 4.6% | Percent elastase inhibition (%) (elastase; [5]): 6.5% | elastase inhibiting activity (in words) (elastase): weak activity | elastase inhibiting activity (in words) (elastase; listed as tellimagrandin 1): little activity

— patent US10105313B2, “Uses of rose pigment compounds” (SUNTORY HOLDINGS LIMITED, priority 2014, dated 2018)
